According to US20250034165A1, “COMPOUND CONTAINING CYCLOALKYL OR HALOALKYL” (CHIA TAI TIANQING PHARMACEUTICAL GROUP CO., LTD., priority 2021, published 2025):
Read-outs that look alike come from different tables or passages of the source.

Key:
[1] = biological target: EGFR (d746-750 (d19)/T790M) (Homo sapiens (Human), UniProt P00533, DEL746-750/T790M); assay: Inhibitory activity for EGFR (d746-750 (d19)/T790M) kinase; format: biochemical; settings: ATP 5 μM
Outline: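 Recombinant EGFR d746-750/T790M (0.003 ng/μL final) preincubated 30 min with compound (10 to 0.0024 nM, 4-fold steps), then 5 μM ATP and 0.1 μM ULight-poly GT added for 2 h at room temperature. EDTA stop, Eu-anti-phosphotyrosine TR-FRET read (665 nm); IC50 by four-parameter fit.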

[2] = biological target: EGFR (d746-750/T790M/C797S) (Homo sapiens (Human), UniProt P00533, C797S/DEL746-750/T790M); assay: Inhibitory activity for EGFR (d746-750/T790M/C797S) kinase; format: biochemical; settings: ATP 5 μM; read-out: EGFR(d19/T790M/C797S) (IC50)
Outline: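 EGFR d746-750/T790M/C797S (0.03 ng/μL final) preincubated 30 min with compound (10 nM–0.0024 nM, 4-fold, 7 points). Reaction with 5 μM ATP and 0.1 μM ULight-poly GT, 2 h at room temperature; EDTA stop, Eu-anti-phosphotyrosine TR-FRET read at 665 nm, IC50 by four-parameter fit.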

EGFR (WT) = EGFR (WT) (Homo sapiens (Human), UniProt P00533); assay: Inhibitory activity for EGFR (WT) kinase; format: biochemical; settings: ATP 5 μM
Method: A 50 ng/μL EGFR (WT, Carna) stock solution was diluted with a kinase buffer (50 mM HEPES, 10 mM MgCl2, 2 mM DTT, 1 mM EGTA, 0.01% Tween 20), and 6 μL of 1.67× working solution at 0.005 ng/μL (final concentration: 0.003 ng/μL) was added to each well. Different compounds dissolved in DMSO were added to the wells using a nanoliter pipettor, resulting in the final concentrations of the compounds of 100 nM to 0.0244 nM (4-fold gradient for 7 concentrations in total), and blank control wells (without enzyme) and negative control wells (with enzyme, plus vehicle DMSO) were set, 2 replicate wells for each concentration. After enzyme was reacted with the compound or vehicle for 30 min, 5×ATP at 25 μM (final concentration: 5 μM, Sigma) prepared with a kinase buffer was mixed with 5× substrate at 0.5 μM (final concentration: 0.1 μM, ULight-poly GT, PerkinElmer) at a ratio of 1:1 (v:v), and the mixture was added to each well at 4 μL/well. After being sealed with a film, the plate was incubated at room temperature for 2 h, and then 5 μL of 4×EDTA at 40 mM (final concentration: 10 mM) was added to each well. After the plate was incubated for 5 min at room temperature, 5 μL of 4× detection reagent at 8 nM (final concentration: 2 nM, Eu-anti-phospho-tyrosine antibody, PerkinElmer) was added to each well. After being incubated at room temperature for 1 h, the plate was read using a PerkinElmer Envision multi-mode microplate reader (excitation: 320 nm, emission: 665 nm), and IC50 was calculated by four-parameter fitting.

[3] = tested on: BAF3-EGFR (L858R/T790M/C797S) cells; assay: Inhibition of proliferation of BAF3-EGFR (L858R/T790M/C797S) cells, CCK-8; format: cell-based; settings: 72 h, read-out: BAF3(EGFR T790M L858R C797S) cell inhibitory activity IC50
Outline: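 BaF3 EGFR L858R/T790M/C797S cells seeded at 1.5×10^5 cells/mL in RPMI + 10% FBS, 37 °C, compound added after overnight, duplicates. Viability by CCK-8; % inhibition vs untreated and blank, IC50 by four-parameter fit.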

Chain of EGFR (d746-750/T790M/C797S) (P00533 other isoform, or with tags, fused parts or gaps T790M/C797S/del 1-694/del 746-750 limits assumed): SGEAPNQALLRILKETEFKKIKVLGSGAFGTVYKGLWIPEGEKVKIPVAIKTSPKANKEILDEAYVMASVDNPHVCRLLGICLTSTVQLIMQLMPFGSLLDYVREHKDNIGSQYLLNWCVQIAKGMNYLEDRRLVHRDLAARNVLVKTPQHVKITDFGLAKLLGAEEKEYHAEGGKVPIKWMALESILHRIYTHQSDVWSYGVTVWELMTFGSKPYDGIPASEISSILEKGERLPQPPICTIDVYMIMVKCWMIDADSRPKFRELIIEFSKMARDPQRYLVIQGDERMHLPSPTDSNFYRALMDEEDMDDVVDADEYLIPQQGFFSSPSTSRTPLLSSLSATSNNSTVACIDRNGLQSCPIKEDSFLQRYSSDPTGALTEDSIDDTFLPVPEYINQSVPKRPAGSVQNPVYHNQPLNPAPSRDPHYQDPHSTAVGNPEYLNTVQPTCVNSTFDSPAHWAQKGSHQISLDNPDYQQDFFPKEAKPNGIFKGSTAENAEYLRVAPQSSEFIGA
Chain of EGFR (WT) (P00533 25-1210): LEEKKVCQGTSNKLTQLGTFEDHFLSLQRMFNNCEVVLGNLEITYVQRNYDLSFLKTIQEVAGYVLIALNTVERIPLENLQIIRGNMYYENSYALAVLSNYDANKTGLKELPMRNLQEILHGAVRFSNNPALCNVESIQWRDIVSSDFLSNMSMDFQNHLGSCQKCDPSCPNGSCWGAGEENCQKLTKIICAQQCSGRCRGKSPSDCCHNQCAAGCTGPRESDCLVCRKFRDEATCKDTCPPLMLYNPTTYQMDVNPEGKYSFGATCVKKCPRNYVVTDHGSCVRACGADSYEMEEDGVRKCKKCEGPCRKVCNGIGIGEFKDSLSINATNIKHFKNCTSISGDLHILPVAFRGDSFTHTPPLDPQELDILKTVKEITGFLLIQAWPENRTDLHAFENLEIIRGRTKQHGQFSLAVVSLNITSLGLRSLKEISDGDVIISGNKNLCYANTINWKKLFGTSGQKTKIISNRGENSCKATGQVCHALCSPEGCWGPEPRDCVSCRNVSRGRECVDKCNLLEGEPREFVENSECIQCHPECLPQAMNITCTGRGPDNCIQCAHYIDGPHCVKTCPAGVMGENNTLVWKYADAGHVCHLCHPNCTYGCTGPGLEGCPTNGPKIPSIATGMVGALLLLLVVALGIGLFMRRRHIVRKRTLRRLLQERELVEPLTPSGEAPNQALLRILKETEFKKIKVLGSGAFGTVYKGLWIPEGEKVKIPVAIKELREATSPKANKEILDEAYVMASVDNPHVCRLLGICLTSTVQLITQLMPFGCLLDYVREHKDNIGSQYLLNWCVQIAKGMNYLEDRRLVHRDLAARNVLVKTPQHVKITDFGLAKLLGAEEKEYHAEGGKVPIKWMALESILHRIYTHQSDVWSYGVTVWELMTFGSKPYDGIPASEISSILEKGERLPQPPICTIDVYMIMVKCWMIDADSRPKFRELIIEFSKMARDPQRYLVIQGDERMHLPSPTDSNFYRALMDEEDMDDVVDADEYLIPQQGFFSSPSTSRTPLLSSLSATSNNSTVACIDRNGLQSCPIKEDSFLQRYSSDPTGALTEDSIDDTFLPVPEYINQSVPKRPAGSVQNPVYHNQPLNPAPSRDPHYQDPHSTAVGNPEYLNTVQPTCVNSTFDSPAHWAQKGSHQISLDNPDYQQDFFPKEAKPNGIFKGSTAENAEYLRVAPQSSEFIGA
Chain of EGFR (d746-750 (d19)/T790M) (P00533 other isoform, or with tags, fused parts or gaps T790M/del 1-668/del 746-750 limits assumed): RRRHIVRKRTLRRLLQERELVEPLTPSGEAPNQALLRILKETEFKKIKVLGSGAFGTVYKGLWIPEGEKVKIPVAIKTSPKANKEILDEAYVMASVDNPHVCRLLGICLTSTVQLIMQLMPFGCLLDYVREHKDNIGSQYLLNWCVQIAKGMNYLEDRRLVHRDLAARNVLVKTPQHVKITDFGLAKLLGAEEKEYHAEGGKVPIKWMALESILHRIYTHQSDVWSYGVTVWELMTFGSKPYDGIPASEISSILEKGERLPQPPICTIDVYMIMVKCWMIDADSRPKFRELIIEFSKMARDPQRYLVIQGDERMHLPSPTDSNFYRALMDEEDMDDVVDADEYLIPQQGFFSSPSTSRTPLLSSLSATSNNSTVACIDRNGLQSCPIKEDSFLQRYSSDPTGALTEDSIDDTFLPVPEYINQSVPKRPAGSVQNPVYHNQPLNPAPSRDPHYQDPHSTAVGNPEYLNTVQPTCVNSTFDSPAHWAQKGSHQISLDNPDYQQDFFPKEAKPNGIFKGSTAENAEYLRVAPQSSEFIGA

SMILES | IC50 [1] [nM] | IC50 [2] [nM] | IC50 (EGFR (WT)) [nM] | IC50 [3] [nM] | IC50 ([3]; Ba/F3 EGFR) [nM]
Cc1cc2cc(n1)-c1cnn(C)c1OCCC[C@@H](C1CC1)CN1/C(=N/C2=O)Nc2cc(NC3(C(F)(F)F)COC3)ccc21 [Example 88] | 0.044 | 0.181 | 6 |  | < 5
Cc1cc2cc(n1)-c1cnn(C)c1OCCC[C@@H](C1CC1)CN1/C(=N/C2=O)Nc2ccc(C=CCCN(C)C)cc21 [Example 24] | 0.016 | 0.021 | 1.1 | < 5 | 
Cc1cc2cc(n1)-c1cnn(C)c1OC[C@H](C1CC1)CCCn1c(nc3ccc(NC4COC4)cc31)NC2=O [Example 59] | 0.04 | 0.074 | 5.9 |  | 
Cc1cc2cc(n1)-c1cnn(C)c1OC[C@H](C1CC1)CCCn1c(nc3cc(NC4COC4)ccc31)NC2=O [Example 60] | 0.039 | 0.07 | 8 |  | 
C[C@H](Nc1ccc2c(c1)N/C1=N\C(=O)c3cc(F)nc(c3)-c3cnn(C)c3OCCC[C@@H](C3CC3)CN12)C(F)(F)F [Example 9] | 0.28 | 0.45 | 0.56 |  | 

Now those with a lower IC50 [1], led by results:

IC50 [1] [nM] | IC50 [2] [nM] | IC50 (EGFR (WT)) [nM] | IC50 [3] [nM] | IC50 ([3]; Ba/F3 EGFR) [nM] | SMILES
0.012 | 0.024 | 0.61 | < 5 |  | Cc1cc2cc(n1)-c1cnn(C)c1OCCC[C@@H](C1CC1)CN1/C(=N/C2=O)Nc2cc(N[C@H](C)C3COC3)ccc21 [Example 39]
0.0089 | 0.015 |  |  | < 5 | Cc1cc2cc(n1)-c1cnn(C)c1OCCC[C@@H](C1CC1)CN1/C(=N/C2=O)Nc2cc(NC3(C)COC3)ccc21 [Example 29]
0.011 | 0.017 | 0.24 | < 5 |  | Cc1cc2cc(n1)-c1cnn(C)c1OCCC[C@@H](C1CC1)CN1/C(=N/C2=O)Nc2cc(N[C@H]3CC[C@@H](N(C)C)CC3)ccc21 [Example 26]
0.011 | 0.014 | 0.049 | < 5 |  | Cc1cc2cc(n1)-c1cnn(C)c1OCCC[C@@H](C1CC1)CN1/C(=N/C2=O)Nc2cc(N[C@H]3CC[C@H](N(C)C)CC3)ccc21 [Example 25]
0.0072 | 0.011 |  |  | < 5 | Cc1cc2cc(n1)-c1cnn(C)c1OCCC[C@@H](C1CC1)CN1/C(=N/C2=O)Nc2ccc(NCCN(C)C)cc21 [Example 28]
